Assay results: ChEMBL document CHEMBL1201862, “PubChem BioAssay data set” (2004)
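Dose response: 5 concentrations. Exposure: 48 h. Format: 96-well plates. Endpoint: linear interpolation; highest concentration if not reached. GI50 marks 50% less growth.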 Calls of active or inactive are those of the source. No stated cut-off is given here; in the data, active = GI50 up to about 1.1 µM and inactive = higher.

Legend:
Test in all cases: inhibition of tumour cell growth, NCI panel, 48 h
HT-29 = system: HT-29
OVCAR-5 = system: OVCAR-5
SK-OV-3 = system: SK-OV-3
SR = system: SR
LOX IMVI = system: LOX IMVI
CAKI-1 = system: CAKI-1
OVCAR-8 = system: OVCAR-8
UO-31 = system: UO-31
Malme-3M = system: Malme-3M
SW-620 = system: SW-620
MDA-MB-231 = system: MDA-MB-231
SK-MEL-5 = system: SK-MEL-5
OVCAR-3 = system: OVCAR-3
CCRF-CEM = system: CCRF-CEM
ACHN = system: ACHN
EKVX = system: EKVX
TK-10 = system: TK-10
UACC-62 = system: UACC-62
RXF 393 = system: RXF 393

| Structure (SMILES) | GI50 (HT-29) | GI50 (OVCAR-5) | GI50 (SK-OV-3) | GI50 (SR) | GI50 (LOX IMVI) | GI50 (CAKI-1) | GI50 (OVCAR-8) | GI50 (UO-31) | GI50 (Malme-3M) | GI50 (SW-620) | GI50 (MDA-MB-231) | GI50 (SK-MEL-5) | GI50 (OVCAR-3) | GI50 (CCRF-CEM) | GI50 (ACHN) | GI50 (EKVX) | GI50 (TK-10) | GI50 (UACC-62) | GI50 (RXF 393) |
| --- | --- | --- | --- | --- | --- | --- | --- | --- | --- | --- | --- | --- | --- | --- | --- | --- | --- | --- | --- |
| Cc1cccc(N(C(=O)Nc2ccc(Cl)c(Cl)c2)C2=NCC(C)S2)c1 (stereo unspecified) | 11.4 µM (inactive) | > 100 µM (inactive) | > 100 µM (inactive) | 32.6 µM (inactive) | 18.3 µM (inactive) | 46.5 µM (inactive) | 60.4 µM (inactive) | > 100 µM (inactive) | 60.1 µM (inactive) | 32.1 µM (inactive) | 29.8 µM (inactive) | 17.5 µM (inactive) | 74.5 µM (inactive) | 46.1 µM (inactive) | 50.1 µM (inactive) | 84.7 µM (inactive) | 23.8 µM (inactive) |  |  |
| O=c1[nH]nc(Cc2ccc(Cl)cc2)n1/N=C\c1ccc(/C=N/n2c(Cc3ccc(Cl)cc3)n[nH]c2=O)cc1 | > 100 µM (inactive) | > 100 µM (inactive) |  |  | > 100 µM (inactive) | 33.3 µM (inactive) | 54 µM (inactive) | > 100 µM (inactive) | > 100 µM (inactive) | > 100 µM (inactive) | 17.2 µM (inactive) | > 100 µM (inactive) | 81.7 µM (inactive) | > 100 µM (inactive) | 29.9 µM (inactive) | > 100 µM (inactive) | 0.855 µM (active) | > 100 µM (inactive) | 29.7 µM (inactive) |
| CC1(C)C2CC(O)C1CCC2=O (stereo unspecified) | > 100 µM (inactive) | > 100 µM (inactive) | > 100 µM (inactive) |  | > 100 µM (inactive) | > 100 µM (inactive) | > 100 µM (inactive) | > 100 µM (inactive) | > 100 µM (inactive) |  | > 100 µM (inactive) | > 100 µM (inactive) | > 100 µM (inactive) | > 100 µM (inactive) | > 100 µM (inactive) |  | > 100 µM (inactive) | > 100 µM (inactive) | > 100 µM (inactive) |
| CC1(C)O[C@H]([C@H](O)c2nnc3ccc(Cl)nn23)[C@@H]([C@H]2COC(C)(C)O2)O1 | > 100 µM (inactive) | > 100 µM (inactive) | > 100 µM (inactive) |  | > 100 µM (inactive) | > 100 µM (inactive) | > 100 µM (inactive) |  | > 100 µM (inactive) | > 100 µM (inactive) | > 100 µM (inactive) | > 100 µM (inactive) | > 100 µM (inactive) | > 100 µM (inactive) | > 100 µM (inactive) | > 100 µM (inactive) | > 100 µM (inactive) | > 100 µM (inactive) | > 100 µM (inactive) |
| C=C1C(=O)OC2(C)CCC1CC1OC1(C)CCC=C(C)CCC2O (stereo unspecified) | > 100 µM (inactive) | > 100 µM (inactive) | > 100 µM (inactive) |  | > 100 µM (inactive) | > 100 µM (inactive) | > 100 µM (inactive) | 57.7 µM (inactive) | > 100 µM (inactive) | 45.4 µM (inactive) | > 100 µM (inactive) | > 100 µM (inactive) | > 100 µM (inactive) | 7.08 µM (inactive) | > 100 µM (inactive) | > 100 µM (inactive) | > 100 µM (inactive) | 61.9 µM (inactive) |  |
| CC1=CC(=O)/C(=C/NC(=S)Nc2ccccc2)C(=O)O1 | > 100 µM (inactive) | > 100 µM (inactive) | > 100 µM (inactive) |  | > 100 µM (inactive) | > 100 µM (inactive) | > 100 µM (inactive) | > 100 µM (inactive) |  | > 100 µM (inactive) | > 100 µM (inactive) | > 100 µM (inactive) | > 100 µM (inactive) | > 100 µM (inactive) | > 100 µM (inactive) | > 100 µM (inactive) | > 100 µM (inactive) | > 100 µM (inactive) | 40.7 µM (inactive) |
| CCOC(=O)C1=CC(C)(C(=O)OCC)Nc2c(nc(N)[nH]c2=O)N1 (stereo unspecified) | > 10 µM (inactive) | > 10 µM (inactive) | > 10 µM (inactive) |  | > 10 µM (inactive) | > 10 µM (inactive) | > 10 µM (inactive) | > 10 µM (inactive) | > 10 µM (inactive) | > 10 µM (inactive) | > 10 µM (inactive) | > 10 µM (inactive) | > 10 µM (inactive) | > 10 µM (inactive) | > 10 µM (inactive) | > 10 µM (inactive) | > 10 µM (inactive) |  | > 10 µM (inactive) |
| CC1=CC[C@@H]2[C@@H](CC[C@@]2(C)O)C(C)(C)[C@H]1CC[C@@H]1[C@@]2(C)CCC(=O)C(C)(C)O[C@@H]2CC[C@]1(C)O | > 10 µM (inactive) | 71 µM (inactive) | 74.3 µM (inactive) | 19 µM (inactive) | 19.1 µM (inactive) | 36.1 µM (inactive) | 24.8 µM (inactive) | 22.5 µM (inactive) |  | 32.7 µM (inactive) | 45.6 µM (inactive) | 17.2 µM (inactive) | 37.7 µM (inactive) | 23.3 µM (inactive) | 19.5 µM (inactive) | 42.1 µM (inactive) | 83.4 µM (inactive) | 16.1 µM (inactive) |  |
| O=C(NC(Cc1ccccc1)(Cc1ccc(O)cn1)C(=O)O)c1ccccc1 (stereo unspecified) | 42.2 µM (inactive) | > 100 µM (inactive) | > 100 µM (inactive) |  | > 100 µM (inactive) | > 100 µM (inactive) | > 100 µM (inactive) | 86.5 µM (inactive) | > 100 µM (inactive) | > 100 µM (inactive) | > 100 µM (inactive) | > 100 µM (inactive) | 63 µM (inactive) | 25.4 µM (inactive) | > 100 µM (inactive) | 55.6 µM (inactive) | > 100 µM (inactive) | > 100 µM (inactive) | > 100 µM (inactive) |
| CNc1nc(SC)nc2c1c(N)nn2C | > 100 µM (inactive) | > 100 µM (inactive) | > 100 µM (inactive) |  | > 100 µM (inactive) | > 100 µM (inactive) | > 100 µM (inactive) | > 100 µM (inactive) | > 100 µM (inactive) | > 100 µM (inactive) | > 100 µM (inactive) | > 100 µM (inactive) | > 100 µM (inactive) | > 100 µM (inactive) | > 100 µM (inactive) |  | > 100 µM (inactive) | > 100 µM (inactive) | > 100 µM (inactive) |
| O=C(O)/C(=C/C(=O)c1ccc(Cl)cc1)NNc1ccc([N+](=O)[O-])cc1[N+](=O)[O-] | 64.1 µM (inactive) | 82.8 µM (inactive) | 35.6 µM (inactive) | 50.9 µM (inactive) | 75.3 µM (inactive) | 24.8 µM (inactive) | 29.5 µM (inactive) | 20.8 µM (inactive) | 30.5 µM (inactive) |  | 36.8 µM (inactive) | > 100 µM (inactive) | 33.3 µM (inactive) | 23.6 µM (inactive) | 31.8 µM (inactive) | > 100 µM (inactive) | 57.5 µM (inactive) | 38.7 µM (inactive) |  |
| O=[N+]([O-])c1ccc(-n2nc3ccc4nonc4c3n2)cc1 | > 100 µM (inactive) | > 100 µM (inactive) | 20 µM (inactive) | > 100 µM (inactive) | 42.4 µM (inactive) | 22.7 µM (inactive) |  | 21.3 µM (inactive) | 24.2 µM (inactive) | > 100 µM (inactive) | > 100 µM (inactive) | 31.2 µM (inactive) | 71.4 µM (inactive) | > 100 µM (inactive) | 41.3 µM (inactive) | 58.3 µM (inactive) | 18.4 µM (inactive) | 32.5 µM (inactive) |  |
| COc1cc(C2S/C(=C/c3ccccc3)C(=O)N2Cc2ccccc2)cc(OC)c1OC (stereo unspecified) | 53.5 µM (inactive) | > 100 µM (inactive) | 42.1 µM (inactive) | 20 µM (inactive) | 32.1 µM (inactive) | 36.8 µM (inactive) | 37.6 µM (inactive) | 24.4 µM (inactive) |  |  | > 100 µM (inactive) | 28.2 µM (inactive) |  | 23.1 µM (inactive) | 64.7 µM (inactive) | 55.6 µM (inactive) | > 100 µM (inactive) | 23.5 µM (inactive) |  |
| COP(=O)(OC)C(N)CCSC (stereo unspecified) | > 100 µM (inactive) | > 100 µM (inactive) | > 100 µM (inactive) | > 100 µM (inactive) | > 100 µM (inactive) | > 100 µM (inactive) | > 100 µM (inactive) | > 100 µM (inactive) | > 100 µM (inactive) | > 100 µM (inactive) |  | > 100 µM (inactive) | > 100 µM (inactive) | > 100 µM (inactive) | > 100 µM (inactive) | > 100 µM (inactive) | > 100 µM (inactive) | > 100 µM (inactive) |  |
| CS/C(=N\S(=O)(=O)c1ccc(Cl)cc1)NCCN/C(=N/S(=O)(=O)c1ccc(Cl)cc1)SC | > 100 µM (inactive) | > 100 µM (inactive) | 23.6 µM (inactive) | > 100 µM (inactive) | > 100 µM (inactive) | > 100 µM (inactive) | 19.9 µM (inactive) | > 100 µM (inactive) | 49.8 µM (inactive) | > 100 µM (inactive) | > 100 µM (inactive) |  | 32 µM (inactive) | > 100 µM (inactive) | > 100 µM (inactive) | 18.7 µM (inactive) | 31.6 µM (inactive) | > 100 µM (inactive) |  |
| CCOC1CCC2C(CCC(/C=C/c3ccc(O)c4ncccc34)N2C)C1 (stereo unspecified) | 7.03 µM (inactive) | 33.2 µM (inactive) |  | 3.21 µM (inactive) |  |  | 3.53 µM (inactive) | 26.1 µM (inactive) | 31.6 µM (inactive) | 7.59 µM (inactive) |  | 19.7 µM (inactive) |  | 4.65 µM (inactive) | 32.7 µM (inactive) | 4.98 µM (inactive) | 33.2 µM (inactive) | 8.89 µM (inactive) |  |
